# Results taken from patent publication US20260207735A1, “Pharmaceutical compositions, vaccines and their uses in the prevention or treatment of a persistent infection or of cancer” (Universitätsmedizin der Johannes Gutenberg-Universität Mainz, priority 2018, published 2026).
# How the values were obtained:
# [1] = system: influenza; conditions: combined with a vaccine, compared to the vaccine alone; cited from earlier work
# [2] = system: CD11c positive Dendritic cells (DCs); assay: TLR7 mediated activation of splenic dendritic cells in vitro (CD40, CD80, CD86 by flow cytometry); assay type: cell-based, C57BL/6 mice; conditions: R-848 10 μg/ml, 24 h incubation; NAC 5 mM
# Protocol: CD11c positive Dendritic cells (DCs) were purified from spleens from C57BL/6 mice) as described in Weber M et al. (2014) and activated as indicated with the TLR7/8 agonist R-848 (10 μg/ml), anthralin (dithranol), N-acetyl cysteine (NAC 5 mM) or left untreated in Iscoves's medium+5% FCS (Michael Weber et al., “Donor and Host B Cell-Derived IL-10 Contributes to Suppression of Graft-Versus-Host Disease.,” European Journal of Immunology 44, no. 6 (June 2014): 1857-65, doi:10.1002/eji.201344081).
# After 24 h incubation, the cells were harvested, labeled with specific mAbs and analyzed by flow cytometry for the activation markers CD40, CD80 and CD86 gating on live (propidium iodide negative, CD11c/MHC class II positive DCs).
# Spleens of C57BL6/J wildtype mice were harvested, picked and digested for 45 min with type 2 collagenase (50 U/ml from Worcester, Pappenheim, Germany) and stopped by adding 2 mM EDTA (from Sigma-Aldrich, Taufkirchen, Germany). After a hypotonic lysis step DCs were isolated using CD11c MicroBeads UltraPure (Miltenyi Biotec, Germany) following the manufacturer's instruction. 2×10^5 CD11c^+ DCs/well were plated in 96 well plates and cultivated for either 24 or 48 h in the presence of TLR7 ligand R-848 (10 μg/ml) and/or different concentrations of anthralin (solved in DMSO). […] Following cytokines were quantified using CBA technology: IL-1b; IL-6; IL-10; IL-12; IL-23; TNF-α.
# [3] = system: peptide-specific CD8+ T cells; assay: Imiquimod based transcutaneous immunization (TCI), primary T cell response (tetramer flow cytometry, in vivo cytolytic activity, IFN-γ ELISpot); set-up: species or system C57BL/6 mice; conditions: for T cell activation (primary T cell response): 0.0625% in Vaseline on ear skin 24 h before TCI (IMI-Sol + OVA peptides), read-out day 7
# [4] = system: peptide-specific CD8+ T cells; assay: Imiquimod based TCI, memory immune response (secondary T cell response), Day 35; assay type: in vivo, C57BL/6 mice; conditions: dithranol 0.0625% in Vaseline 24 h before TCI; read-out Day 35
# Protocol: C57BL/6 mice (n=3-8 per group) were immunized by TCI, performed as described in FIG. 1 (A) The frequency of peptide-specific CD8^+ T cells was assessed on Day 35 via flow cytometry. (B) The in vivo cytolytic activity was analyzed on Day 35, 20 h after transfer of peptide-loaded splenocytes. (C) IFN-γ production of splenocytes on Day 35 post the indicated treatments. Splenocytes were re-stimulated with the indicated peptides for 24 h before harvest and analysis by ELISpot assay. * Significance by One Way ANOVA with Bonferroni Posttest analysis; p<0.05 (*). […]
# For detecting in vivo cytolytic activity, splenocytes of syngenic wildtype mice were labeled with different amounts of 5,6-carboxyfluorescein diacetate succinimidyl ester (CFSE; Invitrogen, Carlsbad, USA) resulting in a CFSE^low and a CFSE^high population. […] Specific lysis was evaluated as following: Specific lysis (%)=100×(1−([…]). All analyses were performed with a LSRII Flow Cytometer and FACSDiva Software (Becton Dickinson, Franklin Lakes, USA). […]
# [5] = system: CD8+ T cell response; conditions: following transcutaneous immunization with imiquimod in mice; cited from earlier work
# [6] = α-Tocopherol 600 U/kg i.p. 1 h before anthralin and/or TCI, day 7
structure (smiles),measurement,setting,value
"CC(C)Cn1cnc2c(N)nc3ccccc3c21 [Imiquimod, imiquimod]",survival of mice,[1],improve survival of mice
"O=C1c2c(O)cccc2Cc2cccc(O)c21 [dithranol, 1,8-dihydroxy-9-anthrone]","TLR7 mediated activation of DCs (CD40, CD80, CD86)",[2],suppresses the TLR7 mediated activation of DCs in vitro
same,T cell activation (primary T cell response),[3],synergistic effect on T cell activation on CD8 positive as well as CD4 positive T cells
same,site dependence of synergistic T cell activation,"[3]; TCI on both ears or only one ear, day 7",required at the same site (ear) to mediate synergistic T cell activation
same,T cell activation including memory T cell formation (secondary T cell response),[4],synergistic effect on T cell activation on CD8 positive as well as CD4 positive T cells including memory T cell formation
O=C1c2cccc(O)c2C(=O)c2c(O)cccc21 [danthron],T cell activation (primary T cell response),[3],no impact on T cell activation
Oc1cc2ccccc2c2ccccc12 [9-phenanthrol],generation of a CD8+ T cell response,[5],enhances the generation of a CD8+ T cell response
"CC(=O)N[C@@H](CS)C(=O)O [NAC, N-acetyl cysteine]","TLR7 mediated activation of DCs (CD40, CD80, CD86)",[2],activation phenotype is restored
Cc1c(C)c2c(c(C)c1O)CC[C@@](C)(CCC[C@H](C)CCC[C@H](C)CCCC(C)C)O2 [α-Tocopherol],CTL frequency (peptide-specific CD8+ T cells),[3]; [6],without affecting CTL frequency
same,in vivo cytolytic activity induced by dithranol (anthralin) TCI,[3]; [6],antagonizes the enhanced cytolytic activity induced by dithranol (anthralin) TCI
